Results from PMC9229991, “Development of Reduced Peptide Bond Pseudopeptide Michael Acceptors for the Treatment of Human African Trypanosomiasis” (Molecules, 2022).
Where two headings read alike, the source gives them in different places.

Experiments:
rhodesain = target: T1, rhodesain (Trypanosoma brucei rhodesiense, UniProt Q95PM0); assay: Rhodesain fluorogenic enzyme assay (Cbz-Phe-Arg-AMC substrate); format: biochemical, T. b. rhodesiense; settings: for Rhodesain kinac: pH 5.5, room temperature; for Rhodesain k2nd: k2nd = kinact/Ki; for inhibition at 100 µM: preliminary screening at 100 µM, read-out: Rhodesain % of inhibition at screening concentration
T1 construct: made in house
Procedure: All molecules were tested towards rhodesain utilizing fluorogenic assays in the presence of Cbz-Phe-Arg-AMC as substrate. […] Firstly, all the molecules were preliminarily screened at 100 µM (Figure 1A), and DMSO and E-64 were employed as the negative and positive control, respectively. Since SPR10–SPR19 passed the initial screening (% of inhibition > 80%), they were properly diluted, in accordance with what is reported in the literature.
Rhodesain was recombinantly expressed as previously described and Cbz-Phe-Arg-AMC (10 µM) was used as the fluorogenic substrate. The rhodesain-mediated hydrolysis released the fluorescent portion AMC, and fluorescence was measured at room temperature over a period of 30 min, using an Infinite 200 PRO microplate reader, and excitation (380 nm) and emission ([…]) filters were employed. The assay buffer was composed of 50 mM sodium acetate, 5 mM EDTA, 200 mM NaCl, and 0.005% Brij 35 with a pH equal to 5.5. Similarly, the enzyme buffer contained the same chemicals as the assay, with the exception of Brij, which was replaced by 1,4-dithiothreitol (DTT). All the SPR derivatives were solubilized in DMSO, which was also used as the negative control. E-64 protease inhibitor [76] was employed as the positive control. […] Each independent assay was performed twice and in duplicate, using 96 well-plates in a total volume of […]. The first order inactivation rate constants (kobs) were determined by means of nonlinear regression analysis of the progress curves (fluorescence (F) vs. time), and the equation F = A (1 − exp(−kobst)) + B was used. The obtained kobs values were fitted vs. the concentrations of tested inhibitors, and the equation kobs = kinact [I]/(Kiapp + [I]) provided the Kiapp and kinact values. Ki values were obtained using the equation Ki = Kiapp/(1 + [S]/Km), where Km is equal to 0.9 µM [77]. Grafit software was used for the nonlinear regression analysis to calculate kinact and Ki. The second-order rate constants k2nd were directly determined as k2nd = kinact/Ki.

[1] = target: human Cathepsin L (hCatL) (Homo sapiens, UniProt P07711); assay: hCatL fluorogenic enzyme assay (selectivity); format: biochemical; settings: for inhibition at 100 µM: screening concentration 100 µM; for Ki: Km 6.5 µM
Procedure: In order to evaluate the selectivity towards the protozoan cysteine protease, all the new Michael acceptors were assayed against human Cathepsin L (hCatL), which represents the homologous protease of rhodesain in humans.
Similarly to rhodesain, the activity towards hCatL was evaluated as reported in the literature. The biological evaluation towards hCatL was performed using the same buffers, reader, fluorogenic substrate, and positive and negative controls as described above for rhodesain, and the preliminary screening was performed at 100 µM. In this case too, each independent assay was performed twice and in duplicate. Differently from rhodesain, Km is equal to 6.5 µM [77].

T. b. brucei [2] = settings: 24 h; cited from earlier work
HEK293 cells = assay: Cytotoxicity assay, resazurin; format: cell-based; settings: 24 h
Procedure: HEK293 cells were cultured in high-glucose DMEM medium with L-glutamine, supplemented with 10% FCS, 20 U/mL penicillin, and 20 µg/mL streptomycin, at 37 °C and 5% CO2. For the cytotoxicity assay, the cells were seeded in 400 µL at 60,000 cells per well of poly-lysine-coated 48-well plates, and incubated for 24 h at 37 °C. Compound stocks were diluted in DMSO in nine consecutive 1:2 steps, resulting in a set of ten dilutions with concentrations from 7 mM to […]. From each dilution, 4 µL were added to the cells in the 48-well plates, in two separate triplicates. Addition of only DMSO served as control. The plates containing cells plus compound dilutions were incubated for 21 h at 37 °C. Subsequently, the medium in each well was exchanged to a medium with resazurin (15 µg/mL), resulting in a final concentration of […]. The plates were incubated for 3 h at 37 °C. Finally, 100 µL of the solution from each well of the 48-well plate was transferred into a 96-well plate, and fluorescence was measured (excitation: 540-14, emission: 590-20) using a CLARIOstar Plus plate reader (BMG Labtech).

T. b. brucei [3] = assay: Antitrypanosomal activity, ATPlite assay; format: cell-based, Trypanosoma brucei brucei; settings: 24 h
Procedure: The parasites used in this study were culture-adapted Trypanosoma brucei brucei of the cell line 449, descendants of the Lister strain 427 [79, 80]. The cells were grown in HMI-9 medium supplemented with 10% FCS, 50 U/mL penicillin, 50 µg/mL streptomycin, and 0.2 µg/mL phleomycin, at 37 °C and 5% CO2. EC50 values for the antitrypanosomal activity were determined using the ATPlite assay as previously described. Briefly, 10 mM compound stocks in DMSO were diluted to 333 µM in HMI-9 medium. This mixture was used to prepare nine further consecutive 1:2 dilutions in HMI-9 medium. Subsequently, 10 µL of diluted compound mixtures were added to 90 µL of media containing 2500 cell/mL in wells of a 96-well plate, in two separate triplicates. The highest DMSO concentration reached in compound plus cells mixture was 0.3%, and parasites treated with DMSO only were used as control. The cells were incubated for 24 h at 37 °C. Subsequently, 50 µL ATPlite 1 step solution (PerkinElmer) was added to each well and luminescence was measured using a CLARIOstar Plus plate reader (BMG Labtech).

L-6 rat myoblast cells = system: L-6 rat myoblast cells; set-up: method as in PMID 21200426; settings: cytotoxicity; read-out: IC50 towards L-6 rat myoblast cells; cited from earlier work
[4] = Cbz-Phe-Arg-AMC 10 µM, pH 5.5, Km 0.9 µM, read-out: Rhodesain Ki

T1 sequence (Q95PM0 entry or part of it): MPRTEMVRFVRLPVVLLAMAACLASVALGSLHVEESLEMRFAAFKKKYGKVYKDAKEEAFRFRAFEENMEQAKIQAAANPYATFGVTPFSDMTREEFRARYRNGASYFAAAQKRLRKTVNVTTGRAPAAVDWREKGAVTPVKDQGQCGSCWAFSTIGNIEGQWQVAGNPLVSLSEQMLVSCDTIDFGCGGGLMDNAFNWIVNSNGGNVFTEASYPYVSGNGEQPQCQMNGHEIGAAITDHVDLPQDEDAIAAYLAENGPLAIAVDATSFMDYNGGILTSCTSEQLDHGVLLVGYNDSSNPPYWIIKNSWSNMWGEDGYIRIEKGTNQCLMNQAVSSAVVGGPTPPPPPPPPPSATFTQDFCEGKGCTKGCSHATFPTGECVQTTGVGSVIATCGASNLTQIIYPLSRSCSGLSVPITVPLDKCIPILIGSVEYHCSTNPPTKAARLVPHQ
Sequence of human Cathepsin L (hCatL) (P07711 114-333): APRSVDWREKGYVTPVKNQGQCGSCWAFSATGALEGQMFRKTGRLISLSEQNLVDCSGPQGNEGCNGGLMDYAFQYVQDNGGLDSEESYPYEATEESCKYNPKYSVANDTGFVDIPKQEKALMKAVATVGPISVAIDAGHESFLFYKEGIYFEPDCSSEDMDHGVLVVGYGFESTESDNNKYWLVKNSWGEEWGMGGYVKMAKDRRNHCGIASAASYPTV

SMILES: CC(C)C[C@H](NC(=O)[C@H]1O[C@@H]1C(=O)O)C(=O)NCCCCN=C(N)N [E-64, reference compound]
- Ki (rhodesain; [4]): 0.033 ± 0.007 µM
- Rhodesain kinac (rhodesain; Cbz-Phe-Arg-AMC 10 µM): 0.0085 ± 0.0008 min⁻¹
- Rhodesain k2nd (rhodesain): 263000 ± 30000 M⁻¹ min⁻¹

SMILES: COC(=O)/C=C/[C@H](CCc1ccccc1)NC(=O)[C@H](Cc1ccccc1)NCc1cccc(F)c1 [SPR14, Methyl (S,E)-4-((S)-2-((3-fluorobenzyl)amino)-3-phenylpropanamido)-6-phenylhex-2-enoate]
- inhibition at 100 µM [1]: 35%
- Ki (rhodesain; [4]): 1.26 ± 0.08 µM
- Rhodesain kinac (rhodesain; Cbz-Phe-Arg-AMC 10 µM): 0.0043 ± 0.0007 min⁻¹
- Rhodesain k2nd (rhodesain): 3398 ± 328 M⁻¹ min⁻¹
- inhibition at 100 µM (rhodesain): > 80%

SMILES: COC(=O)/C=C/[C@H](CCc1ccccc1)NC(=O)[C@H](Cc1ccccc1)NCc1ccc(F)cc1 [SPR15, Methyl (S,E)-4-((S)-2-((4-fluorobenzyl)amino)-3-phenylpropanamido)-6-phenylhex-2-enoate]
- inhibition at 100 µM [1]: 10%
- Ki (rhodesain; [4]): 2.64 ± 0.13 µM
- Rhodesain kinac (rhodesain; Cbz-Phe-Arg-AMC 10 µM): 0.0041 ± 0.0002 min⁻¹
- Rhodesain k2nd (rhodesain): 1552 ± 19 M⁻¹ min⁻¹
- inhibition at 100 µM (rhodesain): > 80%

SMILES: COC(=O)/C=C/[C@H](CCc1ccccc1)NC(=O)[C@H](Cc1ccccc1)NCc1cc(F)ccc1F [SPR17, Methyl (S,E)-4-((S)-2-((2,5-difluorobenzyl)amino)-3-phenylpropanamido)-6-phenylhex-2-enoate]
- inhibition at 100 µM [1]: 12%
- Ki (rhodesain; [4]): 0.46 ± 0.16 µM
- Rhodesain kinac (rhodesain; Cbz-Phe-Arg-AMC 10 µM): 0.0024 ± 0.0006 min⁻¹
- inhibition at 100 µM (rhodesain): > 80%

SMILES: COC(=O)C=CC(CCc1ccccc1)NC(=O)C(Cc1ccccc1)NCc1ccc(C(F)(F)F)cc1 (centres unmarked) [SPR19]
- inhibition at 100 µM [1]: 45%
- Ki (rhodesain): 0.41 ± 0.07 µM
- Rhodesain kinac (rhodesain; Cbz-Phe-Arg-AMC 10 µM): 0.0023 ± 0.0002 min⁻¹
- inhibition at 100 µM (rhodesain): > 80%

SMILES: CSc1ccc(OCc2ncc([N+](=O)[O-])n2C)cc1 [Fexinidazole]
- EC50 (T. b. brucei [2]): 2.38 ± 0.88 µM

SMILES: COC(=O)/C=C/[C@H](CCc1ccccc1)NC(=O)[C@H](Cc1ccccc1)NCc1ccccc1F [SPR13, Methyl (S,E)-4-((S)-2-((2-fluorobenzyl)amino)-3-phenylpropanamido)-6-phenylhex-2-enoate]
- inhibition at 100 µM [1]: 10%
- Ki (rhodesain; [4]): 1.58 ± 0.62 µM
- Rhodesain kinac (rhodesain; Cbz-Phe-Arg-AMC 10 µM): 0.0038 ± 0.0003 min⁻¹
- Rhodesain k2nd (rhodesain): 2753 ± 885 M⁻¹ min⁻¹
- inhibition at 100 µM (rhodesain): > 80%

SMILES: COC(=O)/C=C/[C@H](CCc1ccccc1)NC(=O)[C@H](Cc1ccccc1)NCc1c(F)cccc1F [SPR18, Methyl (S,E)-4-((S)-2-((2,6-difluorobenzyl)amino)-3-phenylpropanamido)-6-phenylhex-2-enoate]
- inhibition at 100 µM [1]: 26%
- Cytotoxicity towards HEK293 cells: concentration up to which no relevant cytotoxicity was observed (HEK293 cells): > 70 µM
- Ki (rhodesain; [4]): 0.21 ± 0.01 µM
- Rhodesain kinac (rhodesain; Cbz-Phe-Arg-AMC 10 µM): 0.0012 ± 0.0001 min⁻¹
- inhibition at 100 µM (rhodesain): > 80%
- EC50 (T. b. brucei [3]; Trypanosoma brucei): 7 ± 1 µM

SMILES: COC(=O)/C=C/[C@H](CCc1ccccc1)NC(=O)[C@H](Cc1ccccc1)NCc1ccc([N+](=O)[O-])cc1 [SPR11, Methyl (S,E)-4-((S)-2-((4-nitrobenzyl)amino)-3-phenylpropanamido)-6-phenylhex-2-enoate]
- Ki [1]: 36.9 ± 2.2 µM
- Ki (rhodesain; [4]): 0.43 ± 0.06 µM
- Rhodesain kinac (rhodesain; Cbz-Phe-Arg-AMC 10 µM): 0.0023 ± 0.0001 min⁻¹
- inhibition at 100 µM (rhodesain): > 80%

SMILES: Nc1nc(N)nc(Nc2ccc([As]3SCC(CO)S3)cc2)n1 (centres unmarked) [melarsoprol]
- IC50 (L-6 rat myoblast cells): 3.3 µM

SMILES: COC(=O)/C=C/[C@H](CCc1ccccc1)NC(=O)[C@H](Cc1ccccc1)NCc1ccccc1 [SPR10, Methyl (S,E)-4-((S)-2-(benzylamino)-3-phenylpropanamido)-6-phenylhex-2-enoate]
- inhibition at 100 µM [1]: 16%
- Ki (rhodesain; [4]): 5.66 ± 0.3 µM
- Rhodesain kinac (rhodesain; Cbz-Phe-Arg-AMC 10 µM): 0.0096 ± 0.0001 min⁻¹
- Rhodesain k2nd (rhodesain): 1703 ± 68 M⁻¹ min⁻¹
- inhibition at 100 µM (rhodesain): > 80%

SMILES: COC(=O)/C=C/[C@H](CCc1ccccc1)NC(=O)[C@H](Cc1ccccc1)NCc1ccc(F)cc1F [SPR16, Methyl (S,E)-4-((S)-2-((2,4-difluorobenzyl)amino)-3-phenylpropanamido)-6-phenylhex-2-enoate]
- inhibition at 100 µM [1]: 38%
- Cytotoxicity towards HEK293 cells: concentration up to which no relevant cytotoxicity was observed (HEK293 cells): > 70 µM
- Ki (rhodesain; [4]): 0.22 ± 0.06 µM
- Rhodesain kinac (rhodesain; Cbz-Phe-Arg-AMC 10 µM): 0.0014 ± 0.0001 min⁻¹
- inhibition at 100 µM (rhodesain): > 80%
- EC50 (T. b. brucei [3]; Trypanosoma brucei): 8.7 ± 3 µM

SMILES: COC(=O)/C=C/[C@H](CCc1ccccc1)NC(=O)[C@H](Cc1ccccc1)NCc1ccc(OC)cc1 [SPR12, Methyl (S,E)-4-((S)-2-((4-methoxybenzyl)amino)-3-phenylpropanamido)-6-phenylhex-2-enoate]
- Ki [1]: 18.5 ± 3.9 µM
- Ki (rhodesain; [4]): 4.79 ± 1.41 µM
- Rhodesain kinac (rhodesain; Cbz-Phe-Arg-AMC 10 µM): 0.0062 ± 0.0014 min⁻¹
- Rhodesain k2nd (rhodesain): 1314 ± 91 M⁻¹ min⁻¹
- inhibition at 100 µM (rhodesain): > 80%

SMILES: COC(=O)/C=C/[C@H](CCc1ccccc1)NC(=O)[C@H](Cc1ccccc1)NC(=O)c1ccc(F)cc1 [SPR34, (S,E)-methyl 4-((S)-2-(4-fluorobenzamido)-3-phenylpropanamido)-6-phenylhex-2-enoate]
- Selectivity Index (SI) (Ki hCatL/rhodesain) [1]: 603
- Ki [1]: 3.5 ± 1.1 µM
- Cytotoxicity towards HEK293 cells: concentration up to which no relevant cytotoxicity was observed (HEK293 cells): > 70 µM
- Ki (rhodesain; [4]): 0.0058 ± 0.0004 µM
- Rhodesain kinac (rhodesain; Cbz-Phe-Arg-AMC 10 µM): 0.0050 ± 0.0003 min⁻¹
- Rhodesain k2nd (rhodesain): 870,606 ± 1178 M^−1 min^−1
- EC50 (T. b. brucei [3]): 15.8 ± 2 µM
- EC50 (T. b. brucei [3]; Trypanosoma brucei): 16 ± 2.1 µM
